Experiments:
[1] = tested on: primary human foetal astrocytes; assay: Intracellular NAD+ levels in cultured human foetal astrocytes (NAD(H) microcycling assay); assay type: cell-based; conditions: for reversal of NAD+ depletion compared to 1-MT treatment alone: supplementation together with 1-MT; for abrogation of resveratrol-induced increase of intracellular NAD+ by de novo pathway inhibitor: inhibitor 1 mM + resveratrol 100 μM
[2] = tested on: human primary Fibroblasts; assay: Residual DNA damage (dsDNA breaks) after UVB, Fibroblasts; assay type: cell-based; conditions: for amount of dsDNA breaks: EC100 or EC100 equivalent combinations; for EC100: mono therapy, DNA repair
[3] = tested on: human primary Keratinocytes; assay: Residual DNA damage (dsDNA breaks) after UVB, Keratinocytes; assay type: cell-based; conditions: for amount of dsDNA breaks: EC100 or EC100 equivalent combinations; for EC100: mono therapy, DNA repair
[4] = tested on: primary human foetal astrocytes; assay: H2O2-mediated intracellular NAD+ depletion in human foetal astrocytes; assay type: cell-based; conditions: for intracellular NAD+ after oxidative (H2O2) insult: 24 hour pre-treatment (Melatonin 5 μM, Clioquinol 10 μM, resveratrol 100 μM), then 100 μM H2O2 15 min
PARP-1 = conditions: exposure to 10-100 μM H2O2 for 20 min
[5] = tested on: primary human foetal astrocytes; conditions: exposure to 10-100 μM H2O2 for 20 min
[6] = tested on: nicotinamide mononucleotide adenylyl transferase (NMNAT); assay: NMNAT activity in whole cell homogenates of human brain astrocytes; assay type: biochemical
[7] = tested on: human primary Keratinocytes; assay: Intracellular NAD 24 hr after UVB exposure in human skin cells; assay type: cell-based; conditions: single therapy 24 hrs after 15 min UVB; NAD levels / LDH activity; N=3
Procedure: Human skin cells (keratinocytes) were grown at a density of 5×10^6 in PERMANOX® chamber-slides (NUNC) for 2 weeks. This method is commonly used in the industry and is well known to those skilled in the art. Accordingly, there is no need to detail the method utilised in this specification.
Cells were either left unexposed or exposed to 15 min UVB (˜200 mJcm^−2).
Cells were left to incubate for 24 hrs before analysis of intracellular NAD (FIG. 19a-d to FIG. 21) and extracellular LDH (FIG. 21). FIGS. 19a-d show the intracellular NAD concentrations+/−UV exposure, +/−supplementation. FIGS. 19e-h show supernatant LDH activity+/−UVE exposure, +/−supplementation.

[8] = target: human recombinant NMNAT (hr-NMNAT1) (Homo sapiens, UniProt Q9HAN9); conditions: resveratrol 50, 100 and 200 μM
[9] = tested on: Human neuroblastoma cells (SK-N-SH); assay: Intracellular NAD+ in human neuroblastoma cells treated with H2O2, iron and ascorbic acid; assay type: cell-based; conditions: for depletion of intracellular NAD+ levels: pre-treatment with 2, 20 and 200 μM, 100 μM H2O2

Chain of human recombinant NMNAT (hr-NMNAT1) (Q9HAN9 whole entry): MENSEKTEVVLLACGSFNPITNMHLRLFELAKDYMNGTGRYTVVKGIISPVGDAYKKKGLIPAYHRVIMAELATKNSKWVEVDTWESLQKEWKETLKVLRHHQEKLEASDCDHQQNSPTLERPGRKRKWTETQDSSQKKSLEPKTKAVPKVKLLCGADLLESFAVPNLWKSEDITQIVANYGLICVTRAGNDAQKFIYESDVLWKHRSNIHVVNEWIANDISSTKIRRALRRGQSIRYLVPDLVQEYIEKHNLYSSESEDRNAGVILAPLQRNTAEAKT

Compound: N[C@@H](Cc1c[nH]c2ccccc12)C(=O)O [L-tryptophan]
- reversal of NAD+ depletion compared to 1-MT treatment alone ([1]; 24 h): partially reversed

Compound: NC(=O)c1ccccn1 [Picolinamide]
- amount of dsDNA breaks ([2]; 24 hr after UVB exposure): significantly reduced
- EC100 [2]: 100 µM
- amount of dsDNA breaks ([3]; 24 hr after UVB exposure): significantly reduced
- EC100 [3]: 100 µM

Compound: OO [H2O2, hydrogen peroxide]
- Intracellular NAD+ ([4]; exposure to 10-100 μM H2O2 for 20 min): significantly decreased
- PARP-1 activity (PARP-1): significantly increased
- LDH activity (a measure of cell death) [5]: significantly increased

Compound: Oc1ccc(/C=C/c2cc(O)cc(O)c2)cc1 [Resveratrol, 3,5,4′-trihydroxystilbene]
- intracellular NAD+ versus control levels ([1]; resveratrol 100 μM, 24 hour): significantly increased
- increase in intracellular NAD+ concentration ([1]; resveratrol 100 μM, 24 hour, cells not subject to oxidative stress): approximately 75%
- intracellular NAD+ after oxidative (H2O2) insult [4]: did not show a significant change
- apparent antioxidant activity (H2O2-mediated NAD+ depletion) ([4]; resveratrol 100 μM 24 hour, then H2O2 20 minutes): small reduction in NAD^+ depletion
- increase of NMNAT activity compared to control ([6]; 200 μM resveratrol, whole cell homogenates): 67%
- increase of NMNAT activity in the whole cell extract ([6]; presence of resveratrol (FIG. 16)): approximately 70%
- Minimum effective concentrations (MEC) [7]: 50 µM
- amount of dsDNA breaks ([2]; 24 hr after UVB exposure): significantly reduced
- EC100 [2]: 100 µM
- amount of dsDNA breaks ([3]; 24 hr after UVB exposure): significantly reduced
- EC100 [3]: 100 µM
- decrease of Km [8]: approximately 3 times

Compound: O=C(O)c1ccccc1C(=O)O [PA]
- abrogation of resveratrol-induced increase of intracellular NAD+ by de novo pathway inhibitor ([1]; 24 hour): Neither inhibitor was able to abrogate the resveratrol effect

Compound: O=C(O)c1cccnc1 [nicotinic acid, Nicotinic acid]
- reversal of NAD+ depletion compared to 1-MT treatment alone ([1]; 24 h): partially reversed

Compound: O=C(OC[C@H]1O[C@@H](OC(=O)c2cc(O)c(O)c(OC(=O)c3cc(O)c(O)c(O)c3)c2)[C@H](OC(=O)c2cc(O)c(O)c(OC(=O)c3cc(O)c(O)c(O)c3)c2)[C@@H](OC(=O)c2cc(O)c(O)c(OC(=O)c3cc(O)c(O)c(O)c3)c2)[C@@H]1OC(=O)c1cc(O)c(O)c(OC(=O)c2cc(O)c(O)c(O)c2)c1)c1cc(O)c(O)c(OC(=O)c2cc(O)c(O)c(O)c2)c1 [tannic acid]
- NAD+ levels, tannic acid alone ([1]; 100 μM, 24 hour incubation): did not significantly reduce
- effect of resveratrol on intracellular NAD+ levels in presence of tannic acid ([1]; tannic acid 100 μM + resveratrol 100 μM, 24 hours): completely abrogated

Compound: O=c1c(O)c(-c2ccc(O)c(O)c2)oc2cc(O)cc(O)c12 [Quercetin]
- NAD+ levels after H2O2 exposure ([4]; quercetin (50 μM) overnight, then 10-100 μM H2O2 for 20 min): significantly preserved

Compound: Vitamin E
- depletion of intracellular NAD+ levels [9]: inhibited

Compound: Cn1cc(C[C@H](N)C(=O)O)c2ccccc21 [1-MT, 1-methyl tryptophan]
- intracellular NAD+ levels ([1]; 1-MT 1 mM, 24 h): significant decrease
- abrogation of resveratrol-induced increase of intracellular NAD+ by de novo pathway inhibitor ([1]; 24 hour): Neither inhibitor was able to abrogate the resveratrol effect

Compound: COc1ccc2[nH]cc(CCNC(C)=O)c2c1 [Melatonin]
- intracellular NAD+ after oxidative (H2O2) insult [4]: significantly reduced NAD^+ depletion
- depletion of intracellular NAD+ levels [9]: inhibited
- reduction in damaged DNA ([2]; 24 hr after UVB exposure): ~40%
- amount of dsDNA breaks ([2]; 24 hr after UVB exposure): significantly reduced
- EC100 [2]: 100 µM
- reduction in damaged DNA ([3]; 24 hr after UVB exposure): ~30%
- amount of dsDNA breaks ([3]; 24 hr after UVB exposure): significantly reduced
- EC100 [3]: 100 µM

Compound: Oc1c(I)cc(Cl)c2cccnc12 [Clioquinol]
- intracellular NAD+ after oxidative (H2O2) insult [4]: significantly reduced NAD^+ depletion
- .OH-induced NAD+ depletion ([9]; Clioquinol 1 μM-100 μM, dose dependant, 100 μM H2O2, 10 μM iron, 10 μM ascorbic acid): effectively reduced
- Minimum effective concentrations (MEC) [7]: 0.1 µM
- amount of dsDNA breaks ([2]; 24 hr after UVB exposure): significantly reduced
- EC100 [2]: 0.1 µM
- amount of dsDNA breaks ([3]; 24 hr after UVB exposure): significantly reduced
- EC100 [3]: 0.1 µM

From US8815936B2 (Nad Life Pty Ltd, priority 2008, dated 2014)
